Results from US9156790B2, “Anticancer P21-activated kinase inhibitors” (Ohio State Innovation Foundation, priority 2013, dated 2015).

What was measured:
FAK = FAK (Homo sapiens, UniProt Q05397); test: Kinase profiling panel: FAK; type: biochemical; conditions: 5 μM compound; average of triplicate
Protocol: To further probe the selectivity of the compounds 4 and 15, they were subjected for kinase profiling service for screening against a panel of other kinases selected based on the kinase tree at 5 μM concentration, at or above the IC50 for the two compounds versus PAK in both in vitro and cell-based assays. […] PAK1 was not available for testing using this system thus it was not possible to compare directly in this assay system.

[1] = test system: BCPAP cells transfected with constitutively activated PAK1 cDNA; test: Migration rescue experiment with constitutively activated PAK1; type: cell-based, Human; conditions: 1 μM compound, 24 hours, P<0.05
Protocol: Myc-tagged constitutively activated (CA) PAK1 cDNAs was the generous gift of Dr. Jonathan Chernoff (Fox Chase Cancer Center, Philadelphia, Pa.). Sells et al., J Cell Biol 145:837-849 (1999). pRC/CMV and pcDNA3.1(+) vector were purchased from Life Technologies. BCPAP cells were grown in RPMI containing 10% FBS until 40-50% confluent. They were transfected with CAPAK1 cDNA or a vector control, washed with PBS, trypsinized with 0.05% Trypsin-EDTA 1× (Gibco) for 5-10 min, collected with 10% FBS RPMI, and centrifuged at 300 g for 5 min. Cells were resuspended with 0% FBS RPMI and counted using Countess™ (Invitrogen). Then a volume of 1×10^5 cells suspended in 300 μl of 0% FBS RPMI was placed into Boyden chamber inserts (8 μm pore). The inserts were placed into wells of a 24 well plate filled with 400 μl of 0% FBS RPMI. The plate was incubated at 37° C. 5% CO2 for 1 hour. Then 30 μl (1 μM) of either compound 4 or 15 was added to the inserts and then incubated again for 1 hour. The inserts were transferred into different wells filled with 400 μl of 10% FBS RPMI. After incubation for 24 hours, the cells on either side of the insert membrane were fixed and quantified as above. Experiments were performed in triplicate on three occasions.
Because the compounds are multikinase inhibitors, we next sought to determine if PAK1 inhibition was responsible for some of the biological effects of the compounds. […]

[2] = test system: PAK phosphorylation of Vimentin (Ser56); test: Western blot, PAK phosphorylation of Vimentin (Ser56) in thyroid cancer cells; type: cell-based, Human; conditions: for PAK phosphorylation of vimentin (Western blot): 7.5 μM, 6 h, FTC133 and TPC1 cells (FIG. 3); for PAK phosphorylation of vimentin (Western blot) / Dose-dependency of PAK inhibition (Vimentin phosphorylation): BCPAP; for IC50: Homo sapiens, cell-based assays, read-out: IC50 versus PAK, cell-based; for Dose-dependency of PAK inhibition (Vimentin phosphorylation): dose-response, 6 hours, FTC133 and TPC1 cells (FIG. 4A)
Protocol: Protein isolation and Western blot were performed as previously described. Ringel et al., Cancer research 61:6105-6111 (2001). 25 μg of total cell lysates were loaded into 4-12% SDS-PAGE, electrophoresed, and transferred to nitrocellulose membranes for immunoblotting. Primary antibodies against Akt (#9272), phospho-Akt (Thr308) (#2965), p44/42 MAPK (Erk1/2) (#9107), phospho-p44/42 MAPK (Erk1/2) (Thr202/Tyr204) (#4377) and GAPDH (#2118) were obtained from Cell Signaling Technology (Danvers, Mass., USA). Antibody against Vimentin (V6630) and phospho-Ser55 Vimentin were from Sigma-Aldrich, Inc. (St. Louis, Mo.) and MBL Co. (Nagoya, Japan), respectively. Antibodies against total and phosphorylated S6 were from Cell Signaling Technology®.
The ability of the compounds with in vitro anti-PAK1 activity was assessed for activity […] in thyroid cancer cells. In addition, because the compounds are based on the structure of a PDK1 inhibitor, PDK1 inhibitory activity was also assessed. Inhibitory activity in cells was estimated using Western blot with primary antibodies directed against kinase-specific phosphorylation sites; serine 56 of vimentin for PAK and threonine 308 of Akt for PDK1. BCPAP, TPC1, and FTC133 thyroid cancer cells were utilized. BCPAP and TPC1 are derived from PTC and have BRAF V600E and RET/PTC1 rearrangements, respectively. FTC133 is derived from a follicular thyroid cancer with an inactivating mutation of PTEN. Similar to the kinase screening assay, cells were treated with the six compounds or OSU-03012 at 7.5 μM concentration or with DMSO vehicle alone. The results were not entirely consistent across the three cell lines presumably related to mutation status or other factors. OSU-03012 inhibited both PDK1 and PAK-mediated phosphorylation of targets as predicted.
The dose-dependency of compounds 4 and 15 was next assessed (FIG. 4). […] Due to the important role that ERK activation plays in thyroid cancer, and its signaling activation by thyroid oncogenes, the effects of the compounds on ERK phosphorylation was also assessed.

Sequence of FAK (Q05397 whole entry, species assumed): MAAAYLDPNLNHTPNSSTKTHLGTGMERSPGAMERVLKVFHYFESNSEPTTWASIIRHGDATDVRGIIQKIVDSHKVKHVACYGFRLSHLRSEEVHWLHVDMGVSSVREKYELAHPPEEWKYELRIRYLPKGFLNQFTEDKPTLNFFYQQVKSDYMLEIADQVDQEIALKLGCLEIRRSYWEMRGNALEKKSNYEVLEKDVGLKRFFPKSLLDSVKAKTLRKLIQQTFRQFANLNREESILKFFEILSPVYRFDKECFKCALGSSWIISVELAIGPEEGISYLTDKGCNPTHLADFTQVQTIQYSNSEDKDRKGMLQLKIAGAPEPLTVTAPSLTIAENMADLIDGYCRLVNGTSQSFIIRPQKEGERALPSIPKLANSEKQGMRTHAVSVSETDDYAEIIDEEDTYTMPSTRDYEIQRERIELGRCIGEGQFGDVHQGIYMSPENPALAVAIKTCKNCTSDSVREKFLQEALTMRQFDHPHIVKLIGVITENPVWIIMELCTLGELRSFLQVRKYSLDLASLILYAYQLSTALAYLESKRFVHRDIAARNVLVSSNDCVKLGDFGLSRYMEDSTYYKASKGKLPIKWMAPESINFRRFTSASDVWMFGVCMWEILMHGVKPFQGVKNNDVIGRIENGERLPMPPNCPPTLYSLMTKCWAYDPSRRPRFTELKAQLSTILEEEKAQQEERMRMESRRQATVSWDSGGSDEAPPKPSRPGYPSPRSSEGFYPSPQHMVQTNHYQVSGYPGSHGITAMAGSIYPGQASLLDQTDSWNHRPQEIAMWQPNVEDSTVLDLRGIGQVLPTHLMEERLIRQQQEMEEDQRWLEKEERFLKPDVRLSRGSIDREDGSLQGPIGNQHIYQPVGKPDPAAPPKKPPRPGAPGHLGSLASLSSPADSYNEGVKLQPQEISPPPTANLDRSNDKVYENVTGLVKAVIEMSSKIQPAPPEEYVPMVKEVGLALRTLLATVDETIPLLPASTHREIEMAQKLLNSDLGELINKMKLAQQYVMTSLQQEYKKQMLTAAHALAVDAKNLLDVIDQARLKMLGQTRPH

Row | Structure (SMILES) | % activity vs. DMSO, FAK (FAK) | Rescue of anti-migratory effect by constitutively activated PAK1 [1] | PAK phosphorylation of vimentin (Western blot) [2] | IC50 [2] | Dose-dependency of PAK inhibition (Vimentin phosphorylation) [2]
1 | NCCC(=O)Nc1ccc(-n2nc(C(F)(F)F)cc2-c2ccc3ccc4ccccc4c3c2)cc1 [Compound 4, 3-amino-N-(4-(5-(phenanthren-3-yl)-3-(trifluoromethyl)-1H-pyrazol-1-yl)phenyl)-propanamide] | 87% | rescued | inhibited PAK | ≤ 5 µM | inhibited PAK1 in a dose dependent manner
2 | CC(C)NC(=O)c1cc(-c2ccc3ccc4ccccc4c3c2)n(-c2ccc(NC(=O)CN)cc2)n1 [Compound 15, 1-(4-(2-Aminoacetamido)phenyl)-N-isopropyl-5-(phenanthren-3-yl)-1H-pyrazole-3-carboxamide] | 96% | rescued | inhibited PAK | ≤ 5 µM | inhibited PAK1 in a dose dependent manner
